Holding throughout (format): cell-based
Data set [1] has as its target T1, BCRP/ABCG2 (Homo sapiens, UniProt Q9UNQ0).
T1 construct: expressed in transfected cells; host or cells: HEK-293 transfected with pcDNA3.1-ABCG2
T1 sequence (Q9UNQ0 1-655): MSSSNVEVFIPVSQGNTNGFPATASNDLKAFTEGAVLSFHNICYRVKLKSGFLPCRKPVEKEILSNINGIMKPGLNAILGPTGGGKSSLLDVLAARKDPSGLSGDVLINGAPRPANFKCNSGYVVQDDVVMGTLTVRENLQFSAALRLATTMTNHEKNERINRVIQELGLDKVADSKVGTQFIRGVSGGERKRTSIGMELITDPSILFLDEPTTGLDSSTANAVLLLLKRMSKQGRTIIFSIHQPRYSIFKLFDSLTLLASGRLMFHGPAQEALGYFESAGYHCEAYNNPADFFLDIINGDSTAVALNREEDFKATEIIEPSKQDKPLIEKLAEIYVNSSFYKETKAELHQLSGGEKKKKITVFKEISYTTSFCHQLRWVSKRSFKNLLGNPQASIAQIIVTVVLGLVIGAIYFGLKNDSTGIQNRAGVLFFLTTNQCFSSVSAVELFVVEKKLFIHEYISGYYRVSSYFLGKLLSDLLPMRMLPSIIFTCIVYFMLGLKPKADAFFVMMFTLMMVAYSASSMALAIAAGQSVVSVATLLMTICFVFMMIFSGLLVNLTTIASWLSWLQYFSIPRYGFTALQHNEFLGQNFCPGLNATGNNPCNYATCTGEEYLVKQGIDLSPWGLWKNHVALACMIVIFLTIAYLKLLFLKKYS
In words: Flow cytometry: mitoxantrone efflux induced by ABCG2 in transfected HEK-293 cells. The following applies: for inhibition at 2 μM / inhibition at 10 μM: human, HEK-293 cells transfected with ABCG2 (vector pcDNA3.1), probe mitoxantrone (5 μM); for inhibition at 2 μM: 2 μM compound, read-out: BCRP/ABCG2 % efficacy 2 μM; for inhibition at 2 μM / inhibition at 10 μM / BCRP/ABCG2 IC50, μM / IC50: mitoxantrone efflux, HEK-293 cells; for inhibition at 10 μM: 10 μM compound, three independent experiments, read-out: BCRP/ABCG2 % efficacy 10 μM. The source says:
(§1) Cell cultures. The human […] HEK-293 transfected with the vector pcDNA3.1 including or not the gene encoding ABCG2 (Robey, R. W., Honjo, Y., Morisaki, K., Nadjem, T. A., Runge, S., Risbood, M., Poruchynsky, M. S., Bates, S. E. 2003, Br. J. Cancer 89(10) 1971-1978) was used to test the efficacy of the products on ABCG2. The newborn hamster kidney cell line BHK21 either natural (negative control) or transfected with the vector pNUT-MRP/His expressing the gene encoding ABCC1 (Chang, Xiu-Bao, Hou, Yue-Xian, Riordan, John R. 1997, J. Biol. Chem. 272(49) 30962-30968) was used to test the efficacy of the products on ABCC1. The cell line NIH3T3 natural or transfected with the vector pHaMDR1/A expressing ABCB1 (Cardarelli, Carol O., Aksentijevich, Ivan, Pastan, Ira, Gottesman, Michael M. 1995 Cancer Res. 55 1086-1091) was used to test the efficacy of the compounds on ABCB1. The various cell types are cultured according to the protocols described previously (Robey, R. W., Honjo, Y., Morisaki, K., Nadjem, T. A., Runge, S., Risbood, M., Poruchynsky, M. S., Bates, S. E. 2003, Br. J. Cancer 89(10) 1971-1978 for the line HEK293, Chang, Xiu-Bao, Hou, Yue-Xian, Riordan, John R. 1997, J. Biol. Chem. 272(49) 30962-30968 for the line BHK21 and Cardarelli, Carol O., Aksentijevich, Ivan, Pastan, Ira, Gottesman, Michael M. 1995 Cancer Res. 55 1086-1091 for the line NIH3T3).
(§2) FIG. 1 schematically illustrates an efflux of substrate induced by a typical ABC transporter. The substrates S, such as mitoxantrone effluxed with ABCG2 and ABCB1 or daunorubicin effluxed with ABCC1, are accumulated in the cells and expelled by the transporter T, leading to a decrease in intracellular fluorescence. In the case of accumulation of the product, typically by inhibition of the efflux protein, the intracellular fluorescence increases.
(§3) Flow cytometry. Transfected or untransfected HEK-293 and BHK-21 cells are in a first stage placed in contact with substrate (5 μM mitoxantrone or 1 μM daunorubicin depending on the transporter). The substrate is accumulated for 30 minutes at 37° C. in the presence or absence of varied concentrations of the test molecules, at 0.5% of DMSO final. After washing with PBS, the cells are incubated in medium containing the same concentrations of test molecules as previously, for 1 hour at 37° C. The drug intracellular fluorescence is measured with a FACscan flow cytometer (Becton Dickinson, Mountain View, Calif.). The fluorescent substrates are excited at 488 nm; the fluorescence emission of mitoxantrone (MTX) is measured at 650 nm and that of daunorubicin is measured at 530 nm. The efficacy of the test molecules is estimated by means of equation 1:
(§4) % efficacy=100×(FA−FBG)/(FC−FBG),
(§5) in which: • FA corresponds to the intracellular level of substrate measured in the cells overexpressing the transporter T (corresponding to the lowest level of fluorescence in the absence of inhibitor), • FC corresponds to the fluorescence in the control cells not expressing the test transporter. This is thus the maximum accumulation of substrate in the cells), • FBG corresponds to the fluorescence measured in the absence of substrate and in the presence of inhibitor.
(§6) The compounds presented in TABLES 2 to 5 were tested by flow cytometry on mammalian cell lines selectively expressing the efflux proteins ABCG2, ABCB1 or ABCC1, as described previously.
(§7) The mitoxantrone efflux induced by ABCG2 or ABCB1 and the daunorubicin efflux induced by ABCC1 are estimated by flow cytometry, as described previously, at 10 μM of each test compound, and then at 2 μM for the compounds showing at least 80% efficacy at 10 μM. The concentration inducing 50% inhibition (IC50) was estimated for the most efficient aza derivatives. The values are obtained by three independent experiments and were adjusted using the SigmaPlot software.
(Flow cytometry measures light scatter and fluorescence of single cells or particles in a stream.)

Data set [2] deals with T2, P-gp/ABCB1 (Homo sapiens, UniProt P08183).
T2 construct: expressed in transfected cells; host or cells: NIH3T3 transfected with pHaMDR1/A
T2 sequence (P08183 whole entry): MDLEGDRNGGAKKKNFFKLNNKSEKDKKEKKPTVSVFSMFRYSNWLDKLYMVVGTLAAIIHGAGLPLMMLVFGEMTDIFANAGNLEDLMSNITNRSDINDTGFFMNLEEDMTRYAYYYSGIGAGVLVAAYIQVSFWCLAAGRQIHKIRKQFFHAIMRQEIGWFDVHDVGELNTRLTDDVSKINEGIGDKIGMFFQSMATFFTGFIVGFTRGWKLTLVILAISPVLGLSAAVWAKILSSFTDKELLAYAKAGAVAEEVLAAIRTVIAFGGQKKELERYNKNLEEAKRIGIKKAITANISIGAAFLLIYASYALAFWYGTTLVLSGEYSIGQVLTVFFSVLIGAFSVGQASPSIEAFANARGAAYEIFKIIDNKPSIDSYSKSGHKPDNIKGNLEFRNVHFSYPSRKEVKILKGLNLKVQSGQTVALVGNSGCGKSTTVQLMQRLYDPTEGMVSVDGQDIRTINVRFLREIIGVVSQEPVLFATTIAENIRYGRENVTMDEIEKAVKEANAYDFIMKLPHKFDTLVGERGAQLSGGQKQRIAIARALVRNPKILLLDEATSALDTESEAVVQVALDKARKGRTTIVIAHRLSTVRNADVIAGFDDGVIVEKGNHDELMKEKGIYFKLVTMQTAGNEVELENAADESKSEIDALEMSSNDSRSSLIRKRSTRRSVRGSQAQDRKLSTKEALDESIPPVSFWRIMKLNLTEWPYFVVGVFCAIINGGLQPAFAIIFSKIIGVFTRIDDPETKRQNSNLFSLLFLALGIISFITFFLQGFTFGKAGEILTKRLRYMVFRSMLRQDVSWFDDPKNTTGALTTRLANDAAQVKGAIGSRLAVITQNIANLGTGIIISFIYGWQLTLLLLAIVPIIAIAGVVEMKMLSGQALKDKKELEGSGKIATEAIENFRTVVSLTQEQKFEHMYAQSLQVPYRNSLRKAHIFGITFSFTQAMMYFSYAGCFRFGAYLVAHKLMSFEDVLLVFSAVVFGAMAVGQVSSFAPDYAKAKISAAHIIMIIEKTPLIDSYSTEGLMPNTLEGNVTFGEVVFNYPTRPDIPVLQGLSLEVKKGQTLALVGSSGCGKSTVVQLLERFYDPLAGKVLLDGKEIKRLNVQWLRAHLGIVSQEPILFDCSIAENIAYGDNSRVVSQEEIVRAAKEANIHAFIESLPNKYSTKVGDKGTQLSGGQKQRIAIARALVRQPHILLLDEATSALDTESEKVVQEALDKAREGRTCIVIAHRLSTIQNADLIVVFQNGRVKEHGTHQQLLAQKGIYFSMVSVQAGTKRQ
The data set can be described thus: Flow cytometry: mitoxantrone efflux induced by ABCB1 in transfected NIH3T3 cells. The following applies: for inhibition at 2 μM / inhibition at 10 μM: human, NIH3T3 cells transfected with ABCB1 (vector pHaMDR1/A), probe mitoxantrone (5 μM); for inhibition at 2 μM: 2 μM compound, read-out: P-gp/ABCB1 % efficacy 2 μM; for inhibition at 10 μM: 10 μM compound, read-out: P-gp/ABCB1 % efficacy 10 μM.
From the text: as §1, §2, §3, §4, §5, §6, §7

The target of data set [3] is T3, MRP1/ABCC1 (Homo sapiens, UniProt P33527).
T3 construct: His; expressed in transfected cells; host or cells: BHK21 (newborn hamster kidney) transfected with pNUT-MRP/His
T3 sequence (P33527 whole entry): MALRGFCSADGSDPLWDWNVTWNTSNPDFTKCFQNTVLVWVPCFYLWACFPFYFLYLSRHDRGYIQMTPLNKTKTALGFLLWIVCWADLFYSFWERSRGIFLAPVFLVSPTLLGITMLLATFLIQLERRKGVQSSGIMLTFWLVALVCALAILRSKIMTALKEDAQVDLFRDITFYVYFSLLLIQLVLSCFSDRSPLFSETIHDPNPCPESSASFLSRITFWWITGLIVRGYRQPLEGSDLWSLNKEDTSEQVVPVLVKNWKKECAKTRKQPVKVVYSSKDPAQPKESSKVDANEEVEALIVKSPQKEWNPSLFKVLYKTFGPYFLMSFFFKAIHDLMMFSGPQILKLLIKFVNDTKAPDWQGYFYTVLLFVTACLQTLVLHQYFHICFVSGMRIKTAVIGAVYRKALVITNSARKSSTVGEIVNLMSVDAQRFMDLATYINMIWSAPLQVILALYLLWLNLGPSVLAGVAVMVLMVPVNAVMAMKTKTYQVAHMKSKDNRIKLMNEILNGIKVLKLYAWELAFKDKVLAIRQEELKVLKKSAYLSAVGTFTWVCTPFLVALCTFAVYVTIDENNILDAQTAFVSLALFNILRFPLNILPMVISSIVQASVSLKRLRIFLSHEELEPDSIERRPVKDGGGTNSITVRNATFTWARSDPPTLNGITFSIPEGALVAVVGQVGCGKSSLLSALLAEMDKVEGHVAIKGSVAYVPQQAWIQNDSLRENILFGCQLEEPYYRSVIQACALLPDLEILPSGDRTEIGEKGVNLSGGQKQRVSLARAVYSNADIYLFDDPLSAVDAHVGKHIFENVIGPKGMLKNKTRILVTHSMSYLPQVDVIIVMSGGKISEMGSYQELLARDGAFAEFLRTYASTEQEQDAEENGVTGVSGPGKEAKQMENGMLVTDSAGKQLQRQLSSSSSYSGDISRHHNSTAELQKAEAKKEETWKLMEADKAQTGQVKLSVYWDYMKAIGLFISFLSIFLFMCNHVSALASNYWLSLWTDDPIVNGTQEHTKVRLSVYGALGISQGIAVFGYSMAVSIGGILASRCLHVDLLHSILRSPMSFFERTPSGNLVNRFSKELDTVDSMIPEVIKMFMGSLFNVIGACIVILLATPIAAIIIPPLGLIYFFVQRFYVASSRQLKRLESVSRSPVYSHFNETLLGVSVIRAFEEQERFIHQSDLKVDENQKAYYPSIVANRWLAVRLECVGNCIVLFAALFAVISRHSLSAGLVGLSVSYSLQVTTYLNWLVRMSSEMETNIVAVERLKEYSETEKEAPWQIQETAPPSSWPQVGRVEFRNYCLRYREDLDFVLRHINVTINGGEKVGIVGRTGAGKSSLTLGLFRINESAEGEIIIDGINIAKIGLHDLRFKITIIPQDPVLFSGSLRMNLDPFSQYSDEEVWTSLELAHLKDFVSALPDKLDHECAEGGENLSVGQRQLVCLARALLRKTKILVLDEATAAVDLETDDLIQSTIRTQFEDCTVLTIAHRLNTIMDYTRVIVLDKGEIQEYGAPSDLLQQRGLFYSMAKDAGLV
The data set can be described thus: Flow cytometry: daunorubicin efflux induced by ABCC1 in transfected BHK21 cells. As to conditions: probe daunorubicin (1 μM), 10 μM compound, read-out: MRP1/ABCC1 % efficacy 10 μM.
From the text: as §1, with “The various cell types are cultured according to the protocols described previously (Robey, R. W., Honjo, Y., Morisaki, K., Nadjem, T. A., Runge, S., Risbood, M., Poruchynsky, M. S., Bates, S. E. 2003, Br. J. Cancer 89(10) 1971-1978 for the line HEK293, Chang, Xiu-Bao, Hou, Yue-Xian, Riordan, John R. 1997, J. Biol. Chem. 272(49) 30962-30968 for the line BHK21 and Cardarelli, Carol O., Aksentijevich, Ivan, Pastan, Ira, Gottesman, Michael M. 1995 Cancer Res. 55 1086-1091 for the line NIH3T3).” left out
as §2
Flow cytometry. […] The drug intracellular fluorescence is measured with a FACscan flow cytometer (Becton Dickinson, Mountain View, Calif.). The fluorescent substrates are excited at 488 nm; the fluorescence emission of mitoxantrone (MTX) is measured at 650 nm and that of daunorubicin is measured at 530 nm. […]
in which: • FA corresponds to the intracellular level of substrate measured in the cells overexpressing the transporter T (corresponding to the lowest level of fluorescence in the absence of inhibitor), • FC corresponds to the fluorescence in the control cells not expressing the test transporter. […]

“And” between values parts separate entries of the source, which are not always exact repeats. Equal values may be shown once.

For `CC(C)(C)OC(=O)N[C@H](CNN(CCCCCCNC(=O)OCc1ccccc1)C(=O)OCc1ccccc1)CC(=O)OCc1ccccc1` [IB.11, Benzyl ester of (3S)-4-[2-benzyloxycarbonyl-2-(6-benzyloxycarbonylaminohexyl)hydrazino]-3-tert-butoxycarbonyl-aminobutyric acid], in data set [1], the inhibition at 2 μM was determined as 92 ± 2%; the inhibition at 10 μM stood at 104 ± 10%; the “BCRP/ABCG2 IC50, μM” value is reported as “micromolar or submicromolar”; it took 500 ± 50 nM to reach half-maximal inhibition (IC50). In data set [2], 700 ± 100 nM corresponded to half-maximal inhibition (IC50) and the “P-gp/ABCB1 IC50, μM” value is on record as “micromolar or submicromolar”.

With `CC(C)(C)OC(=O)NN(C(=O)N[C@@H](CCCCNC(=O)OCc1ccccc1)C(=O)OC(C)(C)C)c1ccccc1C(=O)OCc1ccccc1` [IA.1, tert-Butyl ester of (2S)-6-(benzyloxycarbonylamino)-2-[1-(2′-(benzyloxycarbonyl)phenyl)-2-(tert-butoxycarbonyl)hydrazino-carbonylamino]hexanoic acid], the inhibition at 2 μM was 53 ± 10% in data set [1] and 70 ± 10% in data set [2]. For the same compound, the inhibition at 10 μM amounted to 112 ± 6% in data set [1], 14 ± 3% in data set [3] and 74 ± 1% in data set [2]. For the same compound, the IC50 (usually the concentration that inhibits the measured activity by half) in data set [1] was 2000 nM; in data set [2] it was not above 500 nM.

As to `CC(C)(C)OC(=O)N[C@H](CNN(CCCCCCNC(=O)OCc1ccccc1)C(=O)OC(C)(C)C)CC(=O)OCc1ccccc1` [IB.1, Benzyl ester of (3S)-4-[2-(6-benzyloxycarbonylaminohexyl)-2-tert-butoxycarbonylhydrazino]-3-tert-butoxycarbonylaminobutyric acid], in data set [1], the inhibition at 2 μM worked out at 72 ± 1%; the inhibition at 10 μM amounted to 87 ± 27%; the “BCRP/ABCG2 IC50, μM” value is reported as “micromolar or submicromolar”; the midpoint of inhibition, the IC50, lay at 900 ± 50 nM. Also, the inhibition at 10 μM in data set [3] was 5 ± 1%. In data set [2], 1000 nM corresponded to half-maximal inhibition (IC50); the “P-gp/ABCB1 IC50, μM” value is “micromolar or submicromolar”; the inhibition at 2 μM came out at 70 ± 20%; the inhibition at 10 μM was found to be 63 ± 5%.

Consider `CC(C)(C)OC(=O)NN(C(=O)N[C@@H](CCCCNC(=O)OCc1ccccc1)C(=O)OC(C)(C)C)c1cccc(C(=O)OCc2ccccc2)c1` [IA.2, tert-Butyl ester of (2S)-6-(benzyloxycarbonylamino)-2-[1-(3′-(benzyloxycarbonyl)phenyl)-2-(tert-butoxycarbonyl)hydrazino-carbonylamino]hexanoic acid], for which the “selectivity toward one or other of the proteins BCRP or P-gp” value in data set [1] (BCRP versus P-gp) is recorded as “selective”. Also, the inhibition at 2 μM in data set [1] was found to be 86 ± 14%. The inhibition at 10 μM was 112 ± 26% in data set [1], 5 ± 1% in data set [3] and less than 50% in data set [2]. The IC50 in data set [1] is 1000 nM and 1060 nM.

The values above are taken from patent publication US20120010161A1, “NOVEL AZAPEPTIDE OR AZAPEPTIDOMIMETIC COMPOUNDS INHIBITING BCRP AND/OR P-GP” (CENTRE NATIONAL DE LA RECHERCHE SCIENTIFIQUE, priority 2009, published 2012).
